For 25 molecules, IC50 results are on record in US12435066B2, “Substituted tricyclic compounds” (LUPIN LIMITED, priority 2019, dated 2025).

The experiment relates to pERK in DLD1 cells. Description: ERK phosphorylation assay after EGF stimulation. The format is cell-based. As to conditions: Homo sapiens, DLD-1, compound 2 h, 200 ng/ml hEGF 5 minutes, alphascreen pERK, read-out: ERK phosphorylation inhibition IC50. The method, then:
Example-128: ERK Phosphorylation Assay Protocol
Compounds were tested for their ability to inhibit pERK after EGF stimulation in DLD1 cells. Cells were seeded at 0.2 million cells per well in 96 well cell binding tissue culture plate in 100 μL complete media and were allowed to settle overnight (16 to 20 h). On the following day, cells were treated with various concentrations of test compounds for 2 h followed by stimulation with 200 ng/ml hEGF (diluted in PBS) for 5 minutes. Cells were then washed once with PBS and lysed in freshly prepared lysis buffer (provided with alphascreen surefire ERK1/2 p-T202/Y204 assay kit, cat no: TGRESB10K, Perkin Elmer). Lysis was carried out in plate shaker for 10-15 mins. Lysate was transferred to […] white opti-plate (Perkin Elmer) and alphascreen for pERK was carried out as per manufacturer's instructions. Plate was read after 2 h incubation in plate shaker at […] 300 RPM, 25-28° C.

Take `Cc1nc(N[C@H](C)c2cccc(C(F)(F)CCO)c2F)c2cc(N3CC4(COC4)C3)c3c(c2n1)CCC3` [Compound 70, (R)-3,3-difluoro-3-(2-fluoro-3-(1-((2-methyl-6-(2-oxa-6-azaspiro[3.3]heptan-6-yl)-8,9-dihydro-7H-cyclopenta[h]quinazolin-4-yl)amino)ethyl)phenyl) propan-1-ol]: the IC50 fell in the range of 1 to 200 nM.
The value for `Cc1nc(N[C@H](C)c2cc(N)cc(C(F)(F)F)c2)c2cc(N3CCC4(CCCO4)CC3)c3c(c2n1)CCC3` [Compound 13, (R)—N-(1-(3-amino-5-(trifluoromethyl)phenyl)ethyl)-2-methyl-6-(1-oxa-8-azaspiro[4.5]decan-8-yl)-8,9-dihydro-7H-cyclopenta[h]quinazolin-4-amine] was 1 to 200 nM; that for `Cc1cc(N)cc(C(C)Nc2nc(C)nc3c4c(c(N5CCOCC5)cc23)CCC4)c1` (single isomer, unassigned) [Compound 80, N-(1-(3-amino-5-methylphenyl)ethyl)-2-methyl-6-morpholino-8,9-dihydro-7H-cyclopenta[h]quinazolin-4-amine] was 201 to 500 nM.
Next, `Cc1nc(N[C@H](C)c2cccc(C(F)(F)CO)c2F)c2cc(N3CC[C@](C)(O)C3)c3c(c2n1)CCC3` (single isomer, unassigned) [Compound 67a]: 1 to 200 nM; `Cc1nc(NC(C)c2cc(N)cc(C(F)F)c2)c2cc(N3CC4(COC4)C3)c3c(c2n1)CC(C)(C)O3` (racemic) [Compound 116, (R/S)—N-(1-(3-amino-5-(difluoromethyl)phenyl)ethyl)-2,8,8-trimethyl-6-(2-oxa-6-azaspiro[3.3]heptan-6-yl)-8,9-dihydrofuro[2,3-h]quinazolin-4-amine]: 1 to 200 nM.
The value for `Cc1nc(N[C@H](C)c2cc(N)cc(C(F)(F)F)c2)c2cc(C3CCC(O)CC3)c3c(c2n1)CCC3` (stereo partly drawn) [Compound 125, (R)-4-(4-((1-(3-amino-5-(trifluoromethyl)phenyl)ethyl)amino)-2-methyl-8,9-dihydro-7H-cyclopenta[h]quinazolin-6-yl)cyclohexan-1-ol] was 1 to 200 nM; that for `Cc1nc(N[C@H](C)c2cc(N)cc(C(F)(F)F)c2)c2cc(O[C@H]3CCOC3)c3c(c2n1)CC(C)O3` (mixture of isomers) [Compound 118a, (R/S)—N—((R)-1-(3-amino-5-(trifluoromethyl)phenyl)ethyl)-2,8-dimethyl-6-(((S)-tetrahydrofuran-3-yl)oxy)-8,9-dihydrofuro[2,3-h]quinazolin-4-amine] was 1 to 200 nM.
In the case of `COC[C@H]1CN(c2cc3c(NC(C)c4cccc(C(F)(F)CO)c4C)nc(C)nc3c3c2CCC3)CCO1` (single isomer, unassigned) [Compound 42], the half-inhibitory concentration (IC50) lay within 1 to 200 nM.
Consider `Cc1nc(NC(C)c2cccc(C(F)(F)F)c2F)c2cc(N3CC4(COC4)C3)c3c(c2n1)CCC3` (single isomer, unassigned) [Compound 34, N-(1-(2-fluoro-3-(trifluoromethyl)phenyl)ethyl)-2-methyl-6-(2-oxa-6-azaspiro[3.3]heptan-6-yl)-8,9-dihydro-7H-cyclopenta[h]quinazolin-4-amine], for which the 50% inhibitory concentration (IC50) fell in the range of 1 to 200 nM.
For `Cc1nc(NC(C)c2cccc(C(=O)C(F)(F)F)c2)c2cc(N3CCOCC3)c3c(c2n1)CCC3` (racemic) [Compound 120, (R/S)-2,2,2-trifluoro-1-(3-(1-((2-methyl-6-morpholino-8,9-dihydro-7H-cyclopenta[h]quinazolin-4-yl)amino)ethyl)phenyl)ethan-1-one], the half-maximal inhibitory concentration (IC50) fell in the range of 201 to 500 nM.
Next, `CC(=O)N1CCC(c2cc3c(N[C@H](C)c4cc(N)cc(C(F)(F)F)c4)nc(C)nc3c3c2CCC3)CC1` [Compound 102, (R)-1-(4-(4-((1-(3-amino-5-(trifluoromethyl)phenyl)ethyl)amino)-2-methyl-8,9-dihydro-7H-cyclopenta[h]quinazolin-6-yl)piperidin-1-yl)ethan-1-one]: 1 to 200 nM; `COCC1CN(c2cc3c(N[C@H](C)c4cccc(C(F)(F)CO)c4F)nc(C)nc3c3c2CCC3)C1` [Compound 9, (R)-2,2-difluoro-2-(2-fluoro-3-(1-((6-(3-(methoxymethyl)azetidin-1-yl)-2-methyl-8,9-dihydro-7H-cyclopenta[h]quinazolin-4-yl)amino)ethyl)phenyl)ethan-1-ol]: 201 to 500 nM; `CC(=O)N1CC=C(c2cc3c(N[C@H](C)c4cc(N)cc(C(F)(F)F)c4)nc(C)nc3c3c2CCC3)CC1` [Compound 90, (R)-1-(4-(4-((1-(3-amino-5-(trifluoromethyl)phenyl)ethyl)amino)-2-methyl-8,9-dihydro-7H-cyclopenta[h]quinazolin-6-yl)-3,6-dihydropyridin-1(2H)-yl)ethan-1-one]: 1 to 200 nM.
The value for `COC[C@@H]1CN(c2cc3c(N[C@H](C)c4cc(N)cc(C(F)(F)F)c4)nc(C)nc3c3c2CCC3)CCO1` [Compound 32, N—((R)-1-(3-amino-5-(trifluoromethyl)phenyl)ethyl)-6-((S)-2-(methoxymethyl)morpholino)-2-methyl-8,9-dihydro-7H-cyclopenta[h]quinazolin-4-amine] was 201 to 500 nM; that for `CC(=O)N1CCC(c2cc3c(N[C@H](C)c4cc(N)cc(C(F)(F)F)c4)nc(C)nc3c3c2CCCC3)CC1` [Compound 105, (R)-1-(4-(4-((1-(3-amino-5-(trifluoromethyl)phenyl)ethyl)amino)-2-methyl-7,8,9,10-tetrahydrobenzo[h]quinazolin-6-yl)piperidin-1-yl)ethan-1-one] was 1 to 200 nM.
Next, `Cc1nc(N[C@H](C)c2cc(N)cc(C(F)(F)F)c2)c2cc(C3CCC(=O)CC3)c3c(c2n1)CCC3` [Compound 124, (R)-4-(4-((1-(3-amino-5-(trifluoromethyl)phenyl)ethyl)amino)-2-methyl-8,9-dihydro-7H-cyclopenta[h]quinazolin-6-yl)cyclohexan-1-one]: 201 to 500 nM; `Cc1nc(N[C@H](C)c2cccc(C(F)(F)CO)c2F)c2cc(N3CCO[C@@H](CO)C3)c3c(c2n1)CCC3` [Compound 86, 2,2-difluoro-2-(2-fluoro-3-((R)-1-((6-((R)-2-(hydroxymethyl)morpholino)-2-methyl-8,9-dihydro-7H-cyclopenta[h]quinazolin-4-yl)amino)ethyl)phenyl)ethan-1-ol]: 1 to 200 nM; `Cc1nc(N[C@H](C)c2cccc(C(F)(F)C(C)(C)O)c2F)c2cc(N3CC[C@](C)(O)C3)c3c(c2n1)CCC3` (single isomer, unassigned) [Compound 61b]: 201 to 500 nM.
As to `Cc1nc(N[C@H](C)c2cccc(C(F)(F)C(C)(C)O)c2F)c2cc(-c3ccc(=O)n(C)c3)c3c(c2n1)N(C)C(=O)C(C)(C)O3` [Compound 122, (R)-4-((1-(3-(1,1-difluoro-2-hydroxy-2-methylpropyl)-2-fluorophenyl)ethyl)amino)-2,8,8,10-tetramethyl-6-(1-methyl-6-oxo-1,6-dihydropyridin-3-yl)-8H-[1,4]oxazino[2,3-h]quinazolin-9(10H)-one], the 50% inhibitory concentration (IC50) was in the range of 201 to 500 nM.
On to `Cc1nc(N[C@H](C)c2cccc(C(F)(F)C(C)(C)O)c2F)c2cc(N3CCNC(=O)C3)c3c(c2n1)CCC3` [Compound 66, (R)-4-(4-((1-(3-(1,1-difluoro-2-hydroxy-2-methylpropyl)-2-fluorophenyl)ethyl)amino)-2-methyl-8,9-dihydro-7H-cyclopenta[h]quinazolin-6-yl)piperazin-2-one], for which the IC50 was 1 to 200 nM.
Regarding `Cc1nc(N[C@H](C)c2cc(N)cc(C(F)(F)F)c2)c2cc(C3CCN(C(=O)C4CC4)CC3)c3c(c2n1)CCC3` [Compound 100, (R)-(4-(4-((1-(3-amino-5-(trifluoromethyl)phenyl)ethyl)amino)-2-methyl-8,9-dihydro-7H-cyclopenta[h]quinazolin-6-yl)piperidin-1-yl)(cyclopropyl)methanone], the IC50 was in the range of 201 to 500 nM.
The value for `Cc1nc(NC(C)c2cccc(C(F)(F)CO)c2C)c2cc(N3CC4(COC4)C3)c3c(c2n1)CCC3` (single isomer, unassigned) [Compound 41, 2,2-difluoro-2-(2-methyl-3-(1-((2-methyl-6-(2-oxa-6-azaspiro[3.3]heptan-6-yl)-8,9-dihydro-7H-cyclopenta[h]quinazolin-4-yl)amino)ethyl)phenyl)ethan-1-ol] was 1 to 200 nM.
The value for `Cc1nc(N[C@H](C)c2cccc(C(F)(F)C(C)(C)O)c2F)c2cc(N3CCOCC3=O)c3c(c2n1)CCC3` [Compound 123, (R)-4-(4-((1-(3-(1,1-difluoro-2-hydroxy-2-methylpropyl)-2-fluorophenyl)ethyl)amino)-2-methyl-8,9-dihydro-7H-cyclopenta[h]quinazolin-6-yl)morpholin-3-one] was 201 to 500 nM.
Next, `Cc1nc(N[C@H](C)c2cc(N)cc(C(F)(F)F)c2)c2cc(C3CCOCC3)c3c(c2n1)CCC3` [Compound 104, (R)—N-(1-(3-amino-5-(trifluoromethyl)phenyl)ethyl)-2-methyl-6-(tetrahydro-2H-pyran-4-yl)-8,9-dihydro-7H-cyclopenta[h]quinazolin-4-amine]: 201 to 500 nM; `Cc1nc(NC(C)c2cccc(C(C)(C)CO)c2)c2cc(N3CC4(COC4)C3)c3c(c2n1)CCC3` (single isomer, unassigned) [Compound 6, 2-methyl-2-(3-(1-((2-methyl-6-(2-oxa-6-azaspiro[3.3]heptan-6-yl)-8,9-dihydro-7H-cyclopenta[h]quinazolin-4-yl)amino)ethyl)phenyl)propan-1-ol]: 201 to 500 nM.
